Results published in PMC5402304, “Oxoaporphine Metal Complexes (Co^II, Ni^II, Zn^II) with High Antitumor Activity by Inducing Mitochondria-Mediated Apoptosis and S-phase Arrest in HepG2” (Scientific Reports, 2017).

What was measured:
[1] = Body weight of mice in the HepG2 xenograft model; assay type: in vivo, BALB/c nude mice; conditions: 3.0 and 6.0 mg/kg ip daily, versus solvent control group
Method: To further evaluate the in vivo antitumor efficacy of these complexes, 3 was selected to inhibit tumor growth in a HepG2 xenografts model. The mice were randomized into control group, 3-treated groups and positive control group (n = 6). Once the tumor had grown to an average volume of about 100 mm^3, two group of nude mice were injected intraperitoneally (ip) of 3 at a high dose (6.0 mg/kg) and a low (3.0 mg/kg) dose daily for 20 days, respectively. Cisplatin was used as positive control injected at 2.0 mg/kg every two days, while control group received solvents only.
BALB/c nude mice (male, 17–20 g, 5–6 weeks old) were supplied by Guangxi Medical University Laboratory Animal Centre (Guangxi, China, approval no. SCXK 2014–0002 and SYXK 2014–0003). All of the experimental procedures were carried out according to the NIH Guidelines for the Care and Use of Laboratory Animals. Animal experiments were approved by the Animal Care and Use Committee of Guangxi Medical University. Animal were housed at IVC system (individual ventilated caging) with conditions of constant photoperiod (12 h light/12 h dark at 25−28 °C and 45−65% humidity). The xenograft tumor model was established in the same way as we reported before. […]
The tumor volumes and body weight were measured every 3 days, and tumor size was calculated as volume = (w^2l)/2, where w is the width and l is the length in mm of tumor[70]. […]

[2] = system: cleaved PARP; assay: Western blot of cleaved PARP in HepG2 cells; assay type: cell-based, human; conditions: 24 h
Method: During the caspases-activated apoptotic cascades, mitochondrial apoptotic genes Apaf-1, PARP play an important role. The expressions of Apaf-1, pro-PARP and cleaved PARP in HepG2 cells treated with 3 were carried out by Western blotting. […] The expression of Apaf-1 protein was further confirmed by RT-PCR (Fig. 13C) that the up-regulation of Apaf-1 was also observed. PARP was considered to be an important indicator of cell apoptosis, and the cleaved PARP could cause cellular inactivation and prevent DNA repair.
After incubated with 1–3 (1.0 μM) for 24 h, HepG2 cells were harvested and lysed in 150 μL of lysed buffer (149 μL RIPA and 1 μL PMSF), and then placed on ice for 15 min. The total proteins were extracted by centrifuging the cell sample at 10000 rpm at 4 °C for 10 min. Then about 50 μg of purified proteins were mixed with equal volume of electrophoresis sample buffer, and the mixture was boiled for 10 min. Meanwhile the equal protein content from the control cells was prepared in the same way. The cell sample (10 μL) was loaded onto 10% SDS-PAGE gels and then transferred onto a microporous polyvinylidene difluoride (PVDF) membrane. The membrane was blocked with 5% BSA in TBST buffer for more than 2 h. […] The immunoreactive signals were detected using an enhanced chemo-luminance kit (Pierce ECL Western Blotting Substrate) following the procedures given in the user manual.

[3] = system: HepG2 cells; assay: Comet assay for DNA damage; assay type: cell-based, human; set-up: unit not given here; conditions: HepG2, 1.0 μM, 24 h
Method: After the observation of significant S-phase arrest caused by 1–3, the study of DNA damage assay is necessary. The single cell gel electrophoresis technique (comet assay) is a simple, sensitive, reliable, and rapid method to detect DNA damage in eukaryotic cell[39]. As shown in Table 3 and Fig. 6, 1–3 at 1.0 μM induced DNA damage (fragmentation or unwinding) appeared as fluorescent comets with remarkable increase of tails size, especially for 3.
The comet assay is a simple method for measuring DNA strand breaks in cells. The comet assay reagent kit was purchased from Trevigen, and the experiment was carried out according to the manufacturer’s instructions. After treatment with OD and 1–3 at 1.0 μM, HepG2 cells were harvested and suspended at 1 × 10^6 Hep-G2 cells/mL in PBS. The cells suspension was mixed with melted LM agarose at a ratio of 1:10 (v/v). An aliquot (75 μL) of the mixture was immediately pipetted onto the slide (Comet Slide TM). After refrigeration for 30 min, the slide was immersed in pre-chilled lysis solution and left on ice for 60 min, followed by immersing in freshly prepared alkaline solution (300 mM NaOH, 1 mM EDTA, pH > 13) for 60 min on ice in darkness. After DNA unwinding, the slide was subjected to alkaline solution for electrophoresis in a Savant ps 250 system set at 300 mA and 1 volt/cm for 30 min. After electrophoresis, the slide was rinsed with distilled H2O, fixed in 70% ethanol for 5 min and air-dried overnight. DNA was stained with SYBR Green I (Trevigen) and visualized under a fluorescence microscope (Nikon, Eclipse E600).

Substance: [Zn(OD)2(H2O)2] (ClO4)2 [Complex 3]
- in vivo toxic effect (loss in body weight) [1]: no significant loss in body weight
- increment of cleaved PARP [2]: approximately 70 fold
- Comet length [3]: 119.12 ± 6.59
- Olive tail moment [3]: 22.67 ± 3.76
- Tail length [3]: 58.67 ± 9.14
- Tail moment [3]: 30.46 ± 6.98
